In PubChem BioAssay AID1963872 (Molecular Pharmacology Branch, DTP, NCI, 2024):

System: KRAS patient-derived spheroids with HUVEC/MSC, viability
Experiment: Anticancer human tumor 519858-162-T-J1-PDC patient-derived colon adenocarcinoma cell line growth inhibition [KRAS2]
Settings: for IC50: curve of first compound; for viability, T/C: stronger effect = lower value; active = viability on the fitted dose curve at most 10% of control; inactive = the rest
How it was run: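 KRAS-mutant tumor cells were grown as spheroids with HUVEC endothelial cells and human MSCs as stroma. Targeted agents were tested alone and with KRAS pathway inhibitors. Doses started at or near clinical Cmax, or 10 microM, descending half-log.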

[1] = second compound 0.1 µM, first compound 0.0316 µM
[2] = second compound 0.1 µM, first compound 0.1 µM
[3] = second compound 0.1 µM, first compound 0.316 µM
[4] = second compound 0.1 µM, first compound 1 µM
[5] = second compound 0.1 µM, first compound 3.16 µM
[6] = second compound 0.1 µM, first compound 10 µM
[7] = second compound 0.316 µM, first compound 0.0316 µM
[8] = second compound 0.316 µM, first compound 0.1 µM
[9] = second compound 0.316 µM, first compound 0.316 µM
[10] = second compound 0.316 µM, first compound 1 µM
[11] = second compound 0.316 µM, first compound 3.16 µM
[12] = second compound 0.316 µM, first compound 10 µM
[13] = second compound 1 µM, first compound 0.0316 µM
[14] = second compound 1 µM, first compound 0.1 µM
[15] = second compound 1 µM, first compound 0.316 µM
[16] = second compound 1 µM, first compound 1 µM
[17] = second compound 1 µM, first compound 3.16 µM
[18] = second compound 1 µM, first compound 10 µM
[19] = second compound 3.16 µM, first compound 0.0316 µM
[20] = second compound 3.16 µM, first compound 0.1 µM
[21] = second compound 3.16 µM, first compound 0.316 µM
[22] = second compound 3.16 µM, first compound 1 µM
[23] = second compound 3.16 µM, first compound 3.16 µM
[24] = second compound 3.16 µM, first compound 10 µM
[25] = second compound 10 µM, first compound 0.0316 µM
[26] = second compound 10 µM, first compound 0.1 µM
[27] = second compound 10 µM, first compound 0.316 µM
[28] = second compound 10 µM, first compound 1 µM
[29] = second compound 10 µM, first compound 3.16 µM
[30] = second compound 10 µM, first compound 10 µM
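Note: compound exposure lasted seven days before readout.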
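Throughout, for viability, T/C: 100% = DMSO vehicle control viability.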

COC(=O)c1ccc2c(C(=Nc3ccc(N(C)C(=O)CN4CCN(C)CC4)cc3)c3ccccc3)c(O)[nH]c2c1 + CC1OCC2(CCN(c3cnc(Sc4ccnc(N)c4Cl)c(N)n3)CC2)C1N
> 10 µM: IC50 (second compound 0.1 µM) | IC50 (second compound 0.316 µM) | IC50 (second compound 1 µM) | IC50 (second compound 3.16 µM) | IC50 (second compound 10 µM)
inactive: viability, T/C [1] 66% | viability, T/C [2] 80% | viability, T/C [3] 63.4% | viability, T/C [4] 66% | viability, T/C [5] 99.7% | viability, T/C [6] 74.6% | viability, T/C [7] 72.7% | viability, T/C [8] 67.5% | viability, T/C [9] 86.5% | viability, T/C [10] 64.1% | viability, T/C [11] 67% | viability, T/C [12] 98.8% | viability, T/C [13] 75.4% | viability, T/C [14] 75% | viability, T/C [15] 56.9% | viability, T/C [16] 70.7% | viability, T/C [17] 64.6% | viability, T/C [18] 84% | viability, T/C [19] 47.9% | viability, T/C [20] 60.9% | viability, T/C [21] 72.7% | viability, T/C [22] 52.6% | viability, T/C [23] 67.4% | viability, T/C [24] 83.2% | viability, T/C [25] 49.9% | viability, T/C [26] 58% | viability, T/C [27] 64.7% | viability, T/C [28] 69.2% | viability, T/C [29] 75.3% | viability, T/C [30] 88.3%

COc1cc(Nc2ncc3c(n2)-c2ccc(Cl)cc2C(c2c(F)cccc2OC)=NC3)ccc1C(=O)O + CC1OCC2(CCN(c3cnc(Sc4ccnc(N)c4Cl)c(N)n3)CC2)C1N
inactive: viability, T/C [1] 84.6% | viability, T/C [2] 67.9% | viability, T/C [3] 77.1% | viability, T/C [4] 63.4% | viability, T/C [5] 62% | viability, T/C [6] 73.3% | viability, T/C [7] 69.3% | viability, T/C [8] 62.8% | viability, T/C [9] 88.1% | viability, T/C [10] 75.7% | viability, T/C [11] 63% | viability, T/C [12] 89% | viability, T/C [13] 60.4% | viability, T/C [14] 58.7% | viability, T/C [15] 57.9% | viability, T/C [16] 49.7% | viability, T/C [17] 66.5% | viability, T/C [18] 111% | viability, T/C [19] 55.4% | viability, T/C [20] 58% | viability, T/C [21] 45.7% | viability, T/C [22] 42.9% | viability, T/C [23] 71.2% | viability, T/C [24] 71.1% | viability, T/C [25] 73% | viability, T/C [26] 48.9% | viability, T/C [27] 49.5% | viability, T/C [28] 53.4% | viability, T/C [29] 74.9% | viability, T/C [30] 78%
0.0316 µM: IC50 (second compound 3.16 µM)
> 10 µM: IC50 (second compound 0.1 µM) | IC50 (second compound 0.316 µM) | IC50 (second compound 1 µM) | IC50 (second compound 10 µM)

O=C(c1cc(Cc2n[nH]c(=O)c3ccccc23)ccc1F)N1CCN(C(=O)C2CC2)CC1 + CC1OCC2(CCN(c3cnc(Sc4ccnc(N)c4Cl)c(N)n3)CC2)C1N
inactive: viability, T/C [1] 105% | viability, T/C [2] 76.6% | viability, T/C [3] 80.4% | viability, T/C [4] 87.1% | viability, T/C [5] 98.5% | viability, T/C [6] 76.4% | viability, T/C [7] 83.7% | viability, T/C [8] 100% | viability, T/C [9] 67.7% | viability, T/C [10] 86.6% | viability, T/C [11] 78.1% | viability, T/C [12] 95.7% | viability, T/C [13] 100% | viability, T/C [14] 81.7% | viability, T/C [15] 68.3% | viability, T/C [16] 66.9% | viability, T/C [17] 66.8% | viability, T/C [18] 76.6% | viability, T/C [19] 67.5% | viability, T/C [20] 82.2% | viability, T/C [21] 70.8% | viability, T/C [22] 57.1% | viability, T/C [23] 83.7% | viability, T/C [24] 98.7% | viability, T/C [25] 91.3% | viability, T/C [26] 75.1% | viability, T/C [27] 66.7% | viability, T/C [28] 57.9% | viability, T/C [29] 73% | viability, T/C [30] 65.8%
> 10 µM: IC50 (second compound 0.1 µM) | IC50 (second compound 0.316 µM) | IC50 (second compound 1 µM) | IC50 (second compound 3.16 µM) | IC50 (second compound 10 µM)
